The source of these data is patent publication US20250295790A1, “LECTIN-TARGETING CONJUGATES” (Helmholtz-Zentrum für Infektionsforschung GmbH, priority 2021, published 2025).

In brackets after ≈: the same amount, converted by molar mass. Entries after “also recorded” stand apart in the source; their conditions may differ. Like-named read-outs stand apart in the source and are kept apart here.

The test system of one data set is P. aeruginosa PA14. The data set is described as follows: Antibiotic susceptibility (MIC assay, broth microdilution). Type of data set: cell-based, Pseudomonas aeruginosa PA14. The method, then: Bacterial strains were streaked on LB-agar plates (1% agar) from glycerol stocks and incubated at 37° C. overnight. Colonies were picked from plate and dispersed in fresh MiGler-Hinton broth II (MHB II) to yield an OD600 of 0.08-0.13. This dispersion was diluted 1:100 in fresh MHB II, which was then used for the assay to achieve a final inoculum of 5×10^5 CFU/mL. 50 μL inoculum was mixed with 50 μL of the serial dilution in the corresponding well of the 96-well plate.
The different matrices were prepared under sterile conditions: (i) 5 mL human plasma and 1 mL sterile filtrate from an P. aeruginosa PA14 overnight culture in LB were mixed with 4 mL PBS; (ii) 1 mL sterile filtrate from an P. aeruginosa PA14 overnight culture was diluted in 9 mL PBS; (iii) PBS only and (iv) 5 mL human plasma and 1 mL LB were mixed with 4 mL PBS. 6 L of each compound dilution series was diluted in 115 L matrix (˜-1:20 dilution) in a 96-well format at time point T=−3 h or T=−10 min.
The plates prepared at T=−3 h were sealed with gas-permeable foil and incubated at 37° C. in a humid incubator. The other plates were kept at room temperature. At T=0 h, 50 µL of each well was mixed with 50 μL incoculum (as described above) in double-concentrated MHBII in a sterile 96-well plate.
The plates were sealed with gas-permeable foil and incubated at 37° C. for 18-20 h in a humid incubator. Growth inhibition was assessed by visual inspection and given MIC values are the lowest concentration of antibiotic at which there was no visible growth.

For the next data set, the target named is T1, LecA (Pseudomonas aeruginosa, UniProt Q05097).
T1 construct: made in house
T1 sequence (Q05097 whole entry): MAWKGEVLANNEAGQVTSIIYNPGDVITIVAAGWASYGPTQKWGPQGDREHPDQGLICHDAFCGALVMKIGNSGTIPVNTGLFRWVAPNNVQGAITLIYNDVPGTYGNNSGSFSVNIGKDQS
The data set is described as follows: Competitive binding assay based on fluorescence polarization with LecA. The method, then: LecA (according to Joachim et al.): A serial dilution of the test compounds was prepared in TBS/Ca (8.0 g/L NaCl, 2.4 g/L Tris, 0.19 g/L KCl, 0.15 g/L CaCl2·2 H2O), with 30% DMSO as co-solvent. […] The measured intensities were reduced by the values of only LecA in TBS/Ca and fluorescence polarization was calculated. The data was analysed with the MARS Data Analysis Software (BMG Labtech GmbH, Germany) and fitted according to the four-parameter variable slope model. Bottom and top plateaus were fixed according to the control compounds in each assay ((p-nitrophenyl)-p-D-galactoside) and the data was re-analysed with these values fixed. A minimum of three independent measurements on three plates was performed for each inhibitor.
Averages and standard deviations were calculated from at least three independent experiments.

A further data set has as its target LecB PAO1 (Pseudomonas aeruginosa, UniProt Q9HYN5). Type of data set: binding. Particulars: target LecB PAO1; for Ki: calculated as Ki from IC50, read-out: Ki ± s.d. On the procedure:
LecB (LecB PAO1 according to Hauck et al. and LecB PA14 according to Sommer et al.): A serial dilution of the test compounds was prepared in TBS/Ca, with 20% DMSO as cosolvent. […] Fluorescence was measured and analysed as for LecA. Bottom and top plateaus were fixed according to the control compound in each assay (1-fucose) and the data was re-analysed with these values fixed. A minimum of three independent measurements on three plates was performed for each inhibitor.

Data set [1] in a line: Prodrug activation assay in human blood plasma spiked with P. aeruginosa PA14 culture supernatant. The data set is classed as in vitro ADME, Pseudomonas aeruginosa PA14. Particulars: 50% human blood plasma spiked with 10% P. aeruginosa culture supernatant, within 3 h. The method, then:
In the prodrug activation assay, the bacterial strain Pseudomonas aeruginosa PA14 wt (DSM 19882) was used. The strain was obtained from the German Collection of Microorganisms and Cell Cultures (DSMZ).
P. aeruginosa PA14 was streaked on LB-agar plates (1% agar) from glycerol stocks and incubated at 37° C. overnight. 2-5 colonies were picked and dispersed in 10 mL LB (10 g/L trypton, 10 g/L NaCl, 5 g/L yeast extracts). This dispersion was incubated overnight at 37° C., 180 rpm under high humidity. The culture was centrifuged (4000 ref, room temperature, 10 min) and the supernatant was filtered (0.22 m pore size). […]
(§1) A 1 mM solution of the studied compound was prepared in PBS (150 mM NaCl, 2.6 mM KCl, 1.4 mM KH2PO4, 10 mM Na2HPO4, pH 7.4) with 20% DMSO. 50 μL of this solution was diluted in 950 μL matrix or human plasma (spiked with 10% LB) on ice. After brief vortex, 100 μL were immediately treated with 100 μL ice-cold MeCN (spiked with […] diphenhydramine as internal standard). The rest of the solution was incubated at 37° C. and 500 rpm in an eppendorf thermomixer. At various time points (30, 60, 120, 180 min), 100 L sample were taken and treated as described above. […] The AUC of the parent drug and its cleavage products and the internal standard was quantified using Compass QuantAnalysis quantification software. The relative AUC was calculated by AUC (compound)/AUC(ISTD). Procaine was used as a positive control as it readily degrades in human plasma.

Data set [2] is described as follows: Stability of conjugates in human blood plasma spiked with LB. Type of data set: in vitro ADME. Particulars: 50% human blood plasma spiked with 10% LB, within three hours. On the procedure:
as §1

Another data set addresses LecB PA14 (Pseudomonas aeruginosa, UniProt A0A0H2ZE85). Type of data set: binding. Particulars: target LecB PA14. The method, then: LecB (LecB PAO1 according to Hauck et al. and LecB PA14 according to Sommer et al.): A serial dilution of the test compounds was prepared in TBS/Ca, with 20% DMSO as cosolvent. A concentrated solution of LecB PAO1 or PA14 was diluted in TBS/Ca together with the fluorescent reporter ligand (N-(fluorescein-5-yl)-N′-(α-l-fucopyranosyl ethylen)-thiocarbamide) to yield concentrations of 300 nM and 20 nM, respectively. 10 μL of this mix was added to 10 μL serial dilutions of the test compounds in a black 384-well microtiter plates (Greiner Bio-One, Germany, cat. no. 781900) in triplicates. After centrifugation (2680 ref, 1 min, room temperature), the reactions were incubated for 4-8 h at room temperature in a humidity chamber. Fluorescence was measured and analysed as for LecA. Bottom and top plateaus were fixed according to the control compound in each assay (1-fucose) and the data was re-analysed with these values fixed. A minimum of three independent measurements on three plates was performed for each inhibitor.

[3] abbreviates: Matrix 2: 50% human blood plasma + 10% P. aeruginosa culture supernatant in PBS, pre-incubation 3 h.
Where [4] appears, read: Matrix 2: 50% human blood plasma + 10% P. aeruginosa culture supernatant in PBS, pre-incubation <10 min.
Setting [5] is: Matrix 4: 50% human blood plasma + 10% LB in PBS, pre-incubation 3 h.
[6] abbreviates: Matrix 4: 50% human blood plasma + 10% LB in PBS, pre-incubation <10 min.
[7] abbreviates: Matrix 1: PBS, pre-incubation 3 h.
Where [8] appears, read: Matrix 1: PBS, pre-incubation <10 min.
[9] abbreviates: Matrix 3: 10% P. aeruginosa culture supernatant in PBS, pre-incubation 3 h.
Where [10] appears, read: Matrix 3: 10% P. aeruginosa culture supernatant in PBS, pre-incubation <10 min.
The mark [11] stands for this setting: target LecA, calculated as Ki from IC50, read-out: Ki ± s.d.
[12] abbreviates: target LecA, read-out: IC50 ± s.d.

Sequence of LecB PAO1 (Q9HYN5 entry or part of it): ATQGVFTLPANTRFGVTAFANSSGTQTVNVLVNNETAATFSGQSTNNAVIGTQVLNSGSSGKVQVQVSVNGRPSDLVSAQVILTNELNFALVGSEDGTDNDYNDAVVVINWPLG
Sequence of LecB PA14 (A0A0H2ZE85 entry or part of it): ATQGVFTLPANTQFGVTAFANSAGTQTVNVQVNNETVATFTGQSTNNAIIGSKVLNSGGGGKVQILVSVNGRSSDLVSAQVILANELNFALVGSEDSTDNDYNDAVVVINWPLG

As for `O=C(O)c1cn(C2CC2)c2cc(N3CCNCC3)c(F)cc2c1=O` [Compound 1, Ciprofloxacin, reference compound], the MIC in the data set with P. aeruginosa PA14 (setting [3]) lay within 0.156 to 0.25 µM; in the data set on P. aeruginosa PA14 (setting [4]) it was 0.25 to 0.313 µM; with P. aeruginosa PA14 (setting [5]), 0.156 to 0.313 µM; in the data set on P. aeruginosa PA14 (setting [6]), 0.156 to 0.313 µM.

At LecA, `O=[N+]([O-])c1ccc(S[C@@H]2O[C@H](CO)[C@H](O)[C@H](O)[C@H]2O)cc1` [pNP-β-D-Gal, p-nitrophenyl-β-thio-galactoside, reference compound] displayed an IC50 of 61.9 ± 0.6 µM and a Ki of 26.9 ± 0.25 µM.

On to `NC[C@@H]1CCN(c2nc3c(cc2F)c(=O)c(C(=O)O)cn3C2CC2)C1` [Compound 3, (S)-7-(3-(aminomethyl)-1-pyrrolidinyl)-1-cyclopropyl-6-fluoro-1,4-dihydro-4-oxo-1,8-naphthyridine-3-carboxylic acid, reference compound], for which the MIC in the data set on P. aeruginosa PA14 (Pseudomonas aeruginosa, PA14, read-out: MIC (parent drug)) is 0.29 to 1.45 µM (≈ 0.1 to 0.502 µg/mL).

For the compound `CC(C)C[C@H](NC(=O)CNC(=O)[C@H](C)NC(=O)c1ccc(S(=O)(=O)NC[C@H]2O[C@@H](C)[C@@H](O)[C@@H](O)[C@@H]2O)cc1)C(=O)N[C@@H](C)C(=O)N1CCN(c2cc3c(cc2F)c(=O)c(C(=O)O)cn3C2CC2)CC1` [Compound 25], the IC50 at LecB PAO1 was 4.63 ± 1.99 µM; at LecB PA14 it was 1 ± 0.32 µM. Besides, the “IC50 ± s.d.” value on LecB PAO1 is recorded as “one-digit micromolar range”. In addition, the Ki on LecB PAO1 was 1.92 ± 0.93 µM; at LecB PA14 (calculated as Ki from IC50, read-out: Ki ± s.d.), 0.36 ± 0.12 µM. Also, the “release of antibiotic cargo” value was “do not release ciprofloxacin; also recorded: degradation stopped at the stage of the secondary amide Ala-ciprofloxacin” in data set [1] and “no significant release of their antibiotic cargo” in data set [2]. The MIC was >25 µM in the data set with P. aeruginosa PA14 (setting [7]); >25 µM in the data set with P. aeruginosa PA14 (setting [8]); ≥25 µM in the data set with P. aeruginosa PA14 (setting [3]); ≥25 µM against P. aeruginosa PA14 (setting [9]); ≥25 µM in the data set on P. aeruginosa PA14 (setting [10]); ≥25 µM in the data set with P. aeruginosa PA14 (setting [5]). Besides, the MIC with P. aeruginosa PA14 (setting [6]) was ≥25 µM.

The compound `CC(C)CC(NC(=O)CNC(=O)C(C)NC(=O)c1ccc(S(=O)(=O)NCC2OC(C)C(O)C(O)C2O)cc1)C(=O)NC(C)C(=O)NCC1CCN(c2cc3c(cc2F)c(=O)c(C(=O)O)cn3C2CC2)C1` (centres unmarked) [Compound 49] registered an IC50 at LecB PAO1 of 4.29 ± 2.99 µM. In addition, at LecB PAO1, the “IC50 ± s.d.” value is “one-digit micromolar range”. Also, at LecB PAO1, the Ki was 1.75 ± 1.4 µM. For the same compound, the “release of antibiotic cargo” value was “release their antibiotic cargo; also recorded: released a significant amount of their antibiotic cargo; also recorded: efficiently released their antibiotic cargo” in data set [1] and “no significant release of their antibiotic cargo” in data set [2]. Besides, the MIC against P. aeruginosa PA14 (setting [7]) was >25 µM; in the data set on P. aeruginosa PA14 (setting [8]) it was >25 µM; in the data set with P. aeruginosa PA14 (setting [3]), 1.56 to 3.13 µM; in the data set with P. aeruginosa PA14 (setting [4]), 3.13 to 6.25 µM; with P. aeruginosa PA14 (Matrix 3, <10 min pre-incubation (text b309)), 3.13 µM (≈ 3.13 µg/mL); in the data set on P. aeruginosa PA14 (setting [9]), 1.56 to 6.25 µM. For the same compound, the MIC in the data set with P. aeruginosa PA14 (setting [10]) was 3.13 to 6.25 µM; with P. aeruginosa PA14 (setting [6]) it was ≥25 µM.

For the compound `CC(C)C[C@H](NC(=O)CNC(=O)[C@H](C)NC(=O)c1ccc(S[C@@H]2O[C@H](CO)[C@H](O)[C@H](O)[C@H]2O)cc1)C(=O)N[C@@H](C)C(=O)N1CCN(c2cc3c(cc2F)c(=O)c(C(=O)O)cn3C2CC2)CC1` [Compound 24], the “release of antibiotic cargo” value in data set [1] is “do not release ciprofloxacin; also recorded: degradation stopped at the stage of the secondary amide Ala-ciprofloxacin”; in data set [2], “no significant release of their antibiotic cargo”. Besides, the MIC is >25 µM in the data set on P. aeruginosa PA14 (setting [7]); >25 µM against P. aeruginosa PA14 (setting [8]); ≥25 µM in the data set with P. aeruginosa PA14 (setting [3]); ≥25 µM with P. aeruginosa PA14 (setting [9]); ≥25 µM with P. aeruginosa PA14 (setting [10]); ≥25 µM in the data set on P. aeruginosa PA14 (setting [5]). Moreover, in the data set with P. aeruginosa PA14 (setting [6]), the MIC was ≥25 µM. Also, the Ki on LecA (setting [11]) was 12.9 ± 1.12 µM. Also, the IC50 at LecA (setting [12]) amounted to 31.7 ± 2.46 µM.

`CC(C)CC(NC(=O)CNC(=O)C(C)NC(=O)c1ccc(SC2OC(CO)C(O)C(O)C2O)cc1)C(=O)NC(C)C(=O)NCC1CCN(c2cc3c(cc2F)c(=O)c(C(=O)O)cn3C2CC2)C1` (centres unmarked) [Compound 48]: the results for the “release of antibiotic cargo” value in data set [1] and in data set [2] were “release their antibiotic cargo; also recorded: released a significant amount of their antibiotic cargo; also recorded: efficiently released their antibiotic cargo” and “no significant release of their antibiotic cargo”, respectively. Further, the MIC in the data set with P. aeruginosa PA14 (setting [7]) is >25 µM; in the data set on P. aeruginosa PA14 (setting [8]) it was >25 µM; with P. aeruginosa PA14 (setting [3]) it was 1.56 µM; in the data set with P. aeruginosa PA14 (setting [4]) it was 3.13 to 12.5 µM; with P. aeruginosa PA14 (setting [9]), 1.56 to 3.13 µM; against P. aeruginosa PA14 (setting [10]) it was 1.56 to 3.13 µM. In addition, the MIC in the data set with P. aeruginosa PA14 (setting [6]) was >25 µM. For the same compound, the Ki on LecA (setting [11]) is 11.2 ± 0.73 µM. The IC50 on LecA (setting [12]) came to 28 ± 1.61 µM.
